In patent US11420973B2, “Amide substituted indole compounds useful as TLR inhibitors” (BRISTOL-MYERS SQUIBB COMPANY, priority 2017, dated 2022):

Assays:
[1] = biological target: human TLR9 (Homo sapiens (Human), UniProt Q9NR96); test: TLR9 inhibition reporter assay (HEK-Blue SEAP reporter, ODN2006 stimulation); details: read-out: TLR9 IC50; HEK-Blue cells overexpressing human TLR9, ODN2006 5 nM, SEAP reporter;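 further: SEAP reporter under IFN-β minimal promoter with five NF-κB and AP-1 sites, 22 h incubation, compounds 0.05 nM–50 µM, inhibition relative to agonist plus DMSO versus known inhibitor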
Experimental: (§1) HEK-Blue™-cells (Invivogen) overexpressing human TLR7, TLR8 or TLR9 receptors were used for screening inhibitors of these receptors using an inducible SEAP (secreted embryonic alkaline phosphatase) reporter gene under the control of the IFN-β minimal promoter fused to five NF-κB and AP-1-binding sites. Briefly, cells are seeded into Greiner 384 well plates (15000 cells per well for TLR7, 20,000 for TLR8 and 25,000 for TLR9) and then treated with test compounds in DMSO to yield a final dose response concentration range of 0.05 nM-50 μM. After a 30 minute compound pre-treatment at room temperature, the cells are then stimulated with a TLR7 ligand (gardiquimod at a final concentration of 7.5 μM), TLR8 ligand (R848 at a final concentration of 15.9 μM) or TLR9 ligand (ODN2006 at a final concentration of 5 nM) to activate NF-κB and AP-1 which induce the production of SEAP. After a 22 hour incubation at 37° C., 5% CO2, SEAP levels are determined with the addition of HEK-Blue™ Detection reagent (Invivogen), a cell culture medium that allows for detection of SEAP, according to manufacturer's specifications.

[2] = biological target: human TLR7 (Homo sapiens (Human), UniProt Q9NYK1); test: TLR7 inhibition reporter assay (HEK-Blue SEAP reporter, gardiquimod stimulation); assay type: cell-based; details: HEK-Blue cells overexpressing human TLR7, gardiquimod 7.5 μM
[3] = biological target: human TLR8 (Homo sapiens (Human), UniProt Q9NR97); test: TLR8 inhibition reporter assay (HEK-Blue SEAP reporter, R848 stimulation); details: read-out: TLR8 IC50; HEK-Blue cells overexpressing human TLR8, R848 15.9 μM, SEAP reporter;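 further: SEAP driven by IFN-β minimal promoter with NF-κB and AP-1 sites, 22 h incubation, compounds 0.05 nM–50 µM, inhibition scaled between agonist plus DMSO and reference inhibitor wells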
human TLR8, sequence (Q9NR97 27-1041): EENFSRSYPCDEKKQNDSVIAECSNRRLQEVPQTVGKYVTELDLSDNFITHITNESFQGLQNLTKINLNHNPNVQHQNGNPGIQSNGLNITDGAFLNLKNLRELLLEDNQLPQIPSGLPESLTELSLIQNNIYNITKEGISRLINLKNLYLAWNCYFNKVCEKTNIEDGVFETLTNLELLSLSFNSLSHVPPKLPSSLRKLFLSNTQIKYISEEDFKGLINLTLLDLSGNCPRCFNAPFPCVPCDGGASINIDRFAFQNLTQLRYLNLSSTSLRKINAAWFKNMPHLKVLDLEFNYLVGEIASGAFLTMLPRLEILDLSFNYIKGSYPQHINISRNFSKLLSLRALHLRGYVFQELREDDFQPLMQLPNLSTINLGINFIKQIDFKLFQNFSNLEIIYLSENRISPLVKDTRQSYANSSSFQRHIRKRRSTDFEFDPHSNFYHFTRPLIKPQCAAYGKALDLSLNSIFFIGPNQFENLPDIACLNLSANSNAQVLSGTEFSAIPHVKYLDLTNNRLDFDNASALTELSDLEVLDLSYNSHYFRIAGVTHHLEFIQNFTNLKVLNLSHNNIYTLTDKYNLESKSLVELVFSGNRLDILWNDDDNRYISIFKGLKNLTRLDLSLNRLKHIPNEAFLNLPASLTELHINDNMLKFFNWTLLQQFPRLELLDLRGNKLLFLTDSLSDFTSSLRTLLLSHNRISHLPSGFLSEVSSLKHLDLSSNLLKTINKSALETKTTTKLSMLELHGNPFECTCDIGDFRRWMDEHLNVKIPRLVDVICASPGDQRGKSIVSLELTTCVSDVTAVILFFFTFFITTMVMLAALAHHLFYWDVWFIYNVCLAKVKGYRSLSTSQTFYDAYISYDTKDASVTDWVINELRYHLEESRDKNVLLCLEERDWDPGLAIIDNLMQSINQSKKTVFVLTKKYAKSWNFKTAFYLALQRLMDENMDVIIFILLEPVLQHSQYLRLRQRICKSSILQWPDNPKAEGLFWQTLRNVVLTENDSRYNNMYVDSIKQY
Experimental: as §1

human TLR9, sequence (Q9NR96 26-1032): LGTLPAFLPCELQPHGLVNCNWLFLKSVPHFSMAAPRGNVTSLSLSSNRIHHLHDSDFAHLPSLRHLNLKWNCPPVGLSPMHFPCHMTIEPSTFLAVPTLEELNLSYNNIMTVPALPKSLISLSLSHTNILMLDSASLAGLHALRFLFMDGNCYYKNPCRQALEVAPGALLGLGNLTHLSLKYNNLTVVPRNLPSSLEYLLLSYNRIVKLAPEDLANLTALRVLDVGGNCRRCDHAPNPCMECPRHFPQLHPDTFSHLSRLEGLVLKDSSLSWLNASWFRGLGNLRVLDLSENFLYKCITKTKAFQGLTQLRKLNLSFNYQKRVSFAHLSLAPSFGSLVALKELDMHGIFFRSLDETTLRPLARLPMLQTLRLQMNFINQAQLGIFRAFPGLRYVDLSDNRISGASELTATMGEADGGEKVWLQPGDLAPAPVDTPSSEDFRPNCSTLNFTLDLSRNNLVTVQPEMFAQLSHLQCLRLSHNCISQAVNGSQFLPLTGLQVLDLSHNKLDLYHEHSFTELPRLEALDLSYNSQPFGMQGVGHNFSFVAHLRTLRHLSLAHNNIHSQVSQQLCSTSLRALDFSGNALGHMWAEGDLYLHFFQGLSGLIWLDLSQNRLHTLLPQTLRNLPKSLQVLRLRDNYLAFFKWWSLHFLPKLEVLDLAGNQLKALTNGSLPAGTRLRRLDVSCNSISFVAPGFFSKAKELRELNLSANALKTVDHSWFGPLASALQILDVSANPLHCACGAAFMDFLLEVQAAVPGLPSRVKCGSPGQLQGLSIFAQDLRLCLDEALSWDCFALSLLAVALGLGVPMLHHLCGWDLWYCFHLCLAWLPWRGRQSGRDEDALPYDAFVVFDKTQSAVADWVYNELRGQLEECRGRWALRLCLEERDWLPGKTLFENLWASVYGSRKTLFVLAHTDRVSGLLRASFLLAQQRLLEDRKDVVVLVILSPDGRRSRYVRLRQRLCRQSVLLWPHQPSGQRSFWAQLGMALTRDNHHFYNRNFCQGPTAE
human TLR7, sequence (Q9NYK1 27-1049): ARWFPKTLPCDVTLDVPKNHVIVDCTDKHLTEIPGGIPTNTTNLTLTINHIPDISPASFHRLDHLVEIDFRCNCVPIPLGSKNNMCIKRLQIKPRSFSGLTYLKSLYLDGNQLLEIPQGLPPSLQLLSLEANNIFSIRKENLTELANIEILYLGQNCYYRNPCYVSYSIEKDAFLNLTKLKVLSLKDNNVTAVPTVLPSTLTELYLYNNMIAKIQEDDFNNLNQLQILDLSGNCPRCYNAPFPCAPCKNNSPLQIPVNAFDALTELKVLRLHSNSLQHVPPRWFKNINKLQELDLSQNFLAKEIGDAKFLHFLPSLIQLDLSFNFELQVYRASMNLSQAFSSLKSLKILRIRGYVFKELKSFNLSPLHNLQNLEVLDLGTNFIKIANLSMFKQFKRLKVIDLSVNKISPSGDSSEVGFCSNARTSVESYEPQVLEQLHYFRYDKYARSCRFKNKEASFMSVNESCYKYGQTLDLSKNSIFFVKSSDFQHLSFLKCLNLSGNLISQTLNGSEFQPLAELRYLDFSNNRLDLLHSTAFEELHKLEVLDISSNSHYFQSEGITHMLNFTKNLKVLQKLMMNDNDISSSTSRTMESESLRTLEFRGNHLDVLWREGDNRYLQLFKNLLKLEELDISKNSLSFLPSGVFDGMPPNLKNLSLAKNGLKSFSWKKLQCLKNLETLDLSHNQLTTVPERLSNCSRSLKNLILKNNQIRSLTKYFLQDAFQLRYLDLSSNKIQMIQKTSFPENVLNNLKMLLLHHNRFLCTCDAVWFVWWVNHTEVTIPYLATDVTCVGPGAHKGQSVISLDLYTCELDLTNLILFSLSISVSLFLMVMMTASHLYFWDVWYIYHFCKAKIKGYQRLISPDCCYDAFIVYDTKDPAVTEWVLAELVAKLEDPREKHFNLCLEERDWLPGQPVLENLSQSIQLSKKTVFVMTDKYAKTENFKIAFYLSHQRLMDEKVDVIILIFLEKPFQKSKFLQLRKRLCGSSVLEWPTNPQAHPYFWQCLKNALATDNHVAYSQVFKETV

SMILES | IC50 [1] | IC50 [2] | IC50 [3]
CCN(CC)C(=O)C1CCCN(CC(=O)N2CC3CN(C(=O)c4ccc5[nH]c(-c6ccc(OC)c(OC)c6)c(C(C)C)c5c4)CC3C2)C1 (racemic) [Example 8, 1-(2-{5-[2-(3,4-dimethoxyphenyl)-3-(propan-2-yl)-1H-indole-5-carbonyl]-octahydropyrrolo[3,4-c]pyrrol-2-yl}-2-oxoethyl)-N,N-diethylpiperidine-3-carboxamide] | 7520 nM | 129 nM | 126 nM
CCN(CC)C(=O)C1CCCN(CC(=O)N2CC3CN(C(=O)c4ccc5[nH]c(-c6ccc(OC)c(OC)c6)c(C(C)C)c5c4)CC3C2)C1 (single isomer, unassigned) [Example 10, 1-(2-{5-[2-(3,4-dimethoxyphenyl)-3-(propan-2-yl)-1H-indole-5-carbonyl]-octahydropyrrolo[3,4-c]pyrrol-2-yl}-2-oxoethyl)-N,N-diethylpiperidine-3-carboxamide] | 7630 nM | 111 nM | 114 nM
CCN(CC)C(=O)C1CCCN(CC(=O)N2CC3CN(C(=O)c4ccc5[nH]c(-c6ccc(OC)c(OC)c6)c(C(C)C)c5c4)CC3C2)C1 (single isomer, unassigned) [Example 11, 1-(2-{5-[2-(3,4-dimethoxyphenyl)-3-(propan-2-yl)-1H-indole-5-carbonyl]-octahydropyrrolo[3,4-c]pyrrol-2-yl}-2-oxoethyl)-N,N-diethylpiperidine-3-carboxamide] | 36000 nM | 606 nM | 645 nM
COc1ccc(-c2[nH]c3ccc(C(=O)N4CC5CNCC5C4)cc3c2C(C)C)cc1OC (stereo not drawn) [Example 1, 2-(3,4-dimethoxyphenyl)-5-{octahydropyrrolo[3,4-c]pyrrole-2-carbonyl}-3-(propan-2-yl)-1H-indole] | 375 nM | 30 nM | 49 nM
COc1ccc(-c2[nH]c3ccc(C(=O)N4CCCN(C)CC4)cc3c2C(C)C)cc1OC [Example 2, (2-(3,4-dimethoxyphenyl)-3-isopropyl-1H-indol-5-yl)(4-methyl-1,4-diazepan-1-yl)methanone] | 3010 nM | 45 nM | 4 nM
COc1ccc(-c2[nH]c3ccc(C(=O)N(C)C)cc3c2C(C)C)cc1OC [Example 3, 2-(3,4-dimethoxyphenyl)-3-isopropyl-N,N-dimethyl-1H-indole-5-carboxamide] | > 50000 nM | 153 nM | 79 nM
CNC(=O)c1ccc2[nH]c(-c3ccc(OC)c(OC)c3)c(C(C)C)c2c1 [Example 4, 2-(3,4-dimethoxyphenyl)-3-isopropyl-N-methyl-1H-indole-5-carboxamide] | 30500 nM | 145 nM | 27 nM
COc1ccc(-c2[nH]c3ccc(C(=O)N4C[C@@H]5C[C@H]4CN5)cc3c2C(C)C)cc1OC [Example 5, ((1S,4S)-2,5-diazabicyclo[2.2.1]heptan-2-yl)(2-(3,4-dimethoxyphenyl)-3-isopropyl-1H-indol-5-yl)methanone] | 1380 nM | 43 nM | 43 nM
COc1ccc(-c2[nH]c3ccc(C(=O)N4CC5CN(CC(=O)N(C)C)CC5C4)cc3c2C(C)C)cc1OC (stereo not drawn) [Example 6, 2-{5-[2-(3,4-dimethoxyphenyl)-3-(propan-2-yl)-1H-indole-5-carbonyl]-octahydropyrrolo [3,4-c]pyrrol-2-yl}-N,N-dimethylacetamide] | 5230 nM | 180 nM | 180 nM
CNC(=O)CN1CC2CN(C(=O)c3ccc4[nH]c(-c5ccc(OC)c(OC)c5)c(C(C)C)c4c3)CC2C1 (stereo not drawn) [Example 7, 2-(5-(2-(3,4-dimethoxyphenyl)-3-isopropyl-1H-indole-5-carbonyl)hexahydropyrrolo[3,4-c]pyrrol-2(1H)-yl)-N-methylacetamide] | 4020 nM | 343 nM | 267 nM
COc1ccc(-c2[nH]c3ccc(C(=O)N4CC5CN(C(=O)CN(C)C)CC5C4)cc3c2C(C)C)cc1OC (stereo not drawn) [Example 9, 1-(5-(2-(3,4-dimethoxyphenyl)-3-isopropyl-1H-indole-5-carbonyl)hexahydropyrrolo[3,4-c]pyrrol-2(1H)-yl)-2-(dimethylamino)ethan-1-one] | 5350 nM | 76 nM | 54 nM
CNCCN1CC2CN(C(=O)c3ccc4[nH]c(-c5ccc(OC)c(OC)c5)c(C(C)C)c4c3)CC2C1 (stereo not drawn) [Example 12, (2-(3,4-dimethoxyphenyl)-3-isopropyl-1H-indol-5-yl)(5-(2-(methylamino)ethyl)hexahydropyrrolo[3,4-c]pyrrol-2(1H)-yl)methanone] | 1220 nM | 274 nM | 175 nM
COc1ccc(-c2[nH]c3ccc(C(=O)N4CC5CN(C)CC5C4)cc3c2C(C)C)cc1OC (stereo not drawn) [Example 13, (2-(3,4-dimethoxyphenyl)-3-isopropyl-1H-indol-5-yl)(5-methylhexahydropyrrolo[3,4-c]pyrrol-2(1H)-yl)methanone] | 2160 nM | 61 nM | 61 nM
COc1ccc(-c2[nH]c3ccc(C(=O)N4CC5CN(C(C)C)CC5C4)cc3c2C(C)C)cc1OC (stereo not drawn) [Example 14, (2-(3,4-dimethoxyphenyl)-3-isopropyl-1H-indol-5-yl)(5-isopropylhexahydropyrrolo[3,4-c]pyrrol-2(1H)-yl)methanone] | 1190 nM | 40 nM | 26 nM
COc1ccc(-c2[nH]c3ccc(C(=O)N4CC5CN(C6CCN(C)CC6)CC5C4)cc3c2C(C)C)cc1OC (stereo not drawn) [Example 15, (2-(3,4-dimethoxyphenyl)-3-isopropyl-1H-indol-5-yl)(5-(1-methylpiperidin-4-yl)hexahydropyrrolo[3,4-c]pyrrol-2(1H)-yl)methanone] | 429 nM | 99 nM | 54 nM
CNCC(=O)N1CC2CN(C(=O)c3ccc4[nH]c(-c5ccc(OC)c(OC)c5)c(C(C)C)c4c3)CC2C1 (stereo not drawn) [Example 16, 1-(5-(2-(3,4-dimethoxyphenyl)-3-isopropyl-1H-indole-5-carbonyl)hexahydropyrrolo[3,4-c]pyrrol-2(1H)-yl)-2-(methylamino)ethanone] | 3940 nM | 280 nM | 194 nM
CCc1c(-c2ccc(OC)c(OC)c2)[nH]c2ccc(C(=O)NCCN(C)C)cc12 [Example 17, 2-(3,4-dimethoxyphenyl)-N-[2-(dimethylamino)ethyl]-3-ethyl-1H-indole-5-carboxamide] | 2510 nM | 115 nM | 7.9 nM
CCc1c(-c2ccc(OC)c(OC)c2)[nH]c2ccc(C(=O)NC[C@@H](F)C(C)(C)O)cc12 [Example 18, (R)-2-(3,4-dimethoxyphenyl)-3-ethyl-N-(2-fluoro-3-hydroxy-3-methylbutyl)-1H-indole-5-carboxamide] | 13800 nM | 1660 nM | 260 nM
CCc1c(-c2ccc(OC)c(OC)c2)[nH]c2ccc(C(=O)NC3CCCCCC3)cc12 [Example 20, N-cycloheptyl-2-(3,4-dimethoxyphenyl)-3-ethyl-1H-indole-5-carboxamide] | > 50000 nM | 2310 nM | 858 nM
CCc1c(-c2ccc(OC)c(OC)c2)[nH]c2ccc(C(=O)Nc3cnn(C4COC4)c3)cc12 [Example 21, 2-(3,4-dimethoxyphenyl)-3-ethyl-N-(1-(oxetan-3-yl)-1H-pyrazol-4-yl)-1H-indole-5-carboxamide] | 37400 nM | 764 nM | 132 nM
CCc1c(-c2ccc(OC)c(OC)c2)[nH]c2ccc(C(=O)N(C)Cc3cccnc3)cc12 [Example 22, 2-(3,4-dimethoxyphenyl)-3-ethyl-N-methyl-N-(pyridin-3-ylmethyl)-1H-indole-5-carboxamide] | 37600 nM | 356 nM | 264 nM
CCc1c(-c2ccc(OC)c(OC)c2)[nH]c2ccc(C(=O)N(C)Cc3csc(C4CCNCC4)n3)cc12 [Example 23, 2-(3,4-dimethoxyphenyl)-3-ethyl-N-methyl-N-((2-(piperidin-4-yl)thiazol-4-yl)methyl)-1H-indole-5-carboxamide] | 885 nM | 362 nM | 43 nM
CCc1c(-c2ccc(OC)c(OC)c2)[nH]c2ccc(C(=O)N(C)CCc3ccccn3)cc12 [Example 24, 2-(3,4-dimethoxyphenyl)-3-ethyl-N-methyl-N-(2-(pyridin-2-yl)ethyl)-1H-indole-5-carboxamide] | 31400 nM | 1790 nM | 581 nM
CCc1c(-c2ccc(OC)c(OC)c2)[nH]c2ccc(C(=O)N3CCC(N4CCN(C)CC4)CC3)cc12 [Example 25, (2-(3,4-dimethoxyphenyl)-3-ethyl-1H-indol-5-yl)(4-(4-methylpiperazin-1-yl)piperidin-1-yl)methanone] | 3710 nM | 186 nM | 14 nM
CCc1c(-c2ccc(OC)c(OC)c2)[nH]c2ccc(C(=O)N3CCC[C@H]3COC)cc12 [Example 27, (S)-(2-(3,4-dimethoxyphenyl)-3-ethyl-1H-indol-5-yl)(2-(methoxymethyl)pyrrolidin-1-yl)methanone] | > 50000 nM | 1740 nM | 782 nM
CCc1c(-c2ccc(OC)c(OC)c2)[nH]c2ccc(C(=O)N3CCC[C@H]3CO)cc12 [Example 28, (S)-(2-(3,4-dimethoxyphenyl)-3-ethyl-1H-indol-5-yl)(2-(hydroxymethyl)pyrrolidin-1-yl)methanone] | > 50000 nM | 1350 nM | 220 nM
CCc1c(-c2ccc(OC)c(OC)c2)[nH]c2ccc(C(=O)N3CC[C@@H](N(C)C)C3)cc12 [Example 29, (R)-(2-(3,4-dimethoxyphenyl)-3-ethyl-1H-indol-5-yl)(3-(dimethylamino)pyrrolidin-1-yl)methanone] | 6180 nM | 188 nM | 34 nM
